Laboratory results published in patent US8603997B2, “siRNA that inhibits WT1 gene expression and uses thereof” (Haruo Sugiyama, priority 2004, dated 2013).

Key:
HT-1080 cells [1] = experiment: Mitochondrial membrane potential by MitoLight staining and flow cytometry, HT-1080; type: cell-based; details: HT-1080, 72 hours, compared to mock vector treatment
Protocol: (§1) To elucidate whether the vector-based WT1 siRNA-induced apoptosis takes place through a mitochondria-mediated pathway, the WT1-expressing cell line HT-1080 cells and the non-WT1-expressing cell line PC14 cells were both treated with WRI-4m and a mock vector respectively. 72 hours later, the state of mitochondrial membrane potential was analyzed by MitoLight staining followed by flow cytometry.
(§2) The change in mitochondrial membrane potential (ΔΨm) due to apoptosis induction was analyzed using the MitoLight apoptosis detection kit (Chemicon). Cells after apoptosis induction were incubated at 37° C. in a buffer containing MitoLight (a mitochondria staining dye) for 15 minutes, and then analyzed on a FACScan FL2 channel.

HT-1080 cells [2] = experiment: Apoptosis by Annexin V-FITC/PI flow cytometry, HT-1080; type: cell-based
Protocol: (§3) To elucidate the mechanism of cancer cell growth suppression by vector-based WT1 siRNAs, induction of apoptosis in cells subjected to a vector-based WT1 siRNA treatment was analyzed. Two WT1-expressing cell lines HT-1080 and AZ-521, and a non-WT1-expressing cell line PC-14 were subjected to the WRI-4m treatment, double-stained with AnnexinV-FITC and PI, and then analyzed by flow cytometry.
(§4) Apoptosis analysis by flow cytometry was carried out by the following steps. First, to detect apoptosed cells, 1.0×10^5 cells were washed with PBS, and then the cells were stained by reaction with Annexin V-FITC and PI at room temperature for 15 minutes, using the MEBCYTO Apoptosis kit (Medical and Biological Laboratories Co., Ltd, Nagoya, Japan). Upon analysis of these cells using a FACScan flowcytometer (Becton Dickinson, San Jose, Calif.), Annexin V-FITC-positive cells were defined as apoptosed cells.

cancer cells [3] = experiment: Mitochondrial membrane potential after combined treatment (flow cytometry); type: cell-based; details: compared to anticancer agent alone
Protocol: as §2
Combined use of an siRNA vector with a chemotherapeutic agent or a death ligand, was carried out by the following steps. Cells were plated onto a 6-well plate, and on the next day, the vector-based WT1 siRNA and mock vector were transiently expressed by lipofection using FuGENE 6 (Roche), and 48 hours later, the cells were treated for another 24 hours with 25 μM etoposide (WAKO), 0.2 μM doxorubicin (Sigma), or […] of TNF-related apoptosis-inducing ligand (TRAIL) (Peprotech).
Mitochondrial membrane potential after combined treatment using vector-based WT1 siRNA with doxorubicin, etoposide, and TRAIL, respectively, was evaluated by flow cytometry.

[4] = system: HT-1080 fibrosarcoma cells (WT1-expressing); experiment: Cell count 72 hours after introducing vector-based WT1 siRNAs, HT-1080; details: HT-1080, cell count 72 hours after introduction, versus mock vector
Protocol: (§5) Treatments with the siRNA vectors and mock vector were carried out in the following steps. Cells were plated onto a 6-well plate, and on the next day, the WT1-siRNA expression vectors and mock vector were transiently expressed by lipofection using FuGENE 6 (Roche). Three days later, the cells were trypsinized and the number of cells was counted. The WT1 protein expression level in these cells was analyzed by Western blotting.
To analyze the effect of vector-based WT1 siRNAs on cell growth, the number of cells was counted 72 hours after introducing the six types of vector-based WT1 siRNAs, loop1-WRI-4, WRI-4, WRI-4m, WRI-16m, WRI-17m, and WRI-18m, and a mixture of WRI-4m, WRI-16m, WRI-17m, and WRI-18m, respectively. […] Among the WT1 siRNAs, WRI-4m suppressed growth by 90% or more. In contrast, in PC-14 lung cancer cells (a non-WT1-expressing cell line), cell growth was not suppressed by any of the six vector-based WT1 siRNA treatments (FIG. 6).

PC-14 [5] = experiment: Mitochondrial membrane potential by MitoLight staining and flow cytometry, PC-14; type: cell-based; details: PC-14 (non-WT1-expressing), 72 hours
Protocol: as §1, §2

SW620 colon cancer cells = experiment: Cell count 72 hours after vector introduction, SW620; type: cell-based; details: SW620, cell count 72 hours later
Protocol: as §5
(§6) Furthermore, to investigate whether two types of vector-based WT1 siRNAs (WRI-4m and WRI-16m) can suppress the growth of various WT1-expressing cancer cells, these vectors were introduced into three WT1-expressing cell lines: AZ-521 gastric cancer cells, SW620 colon cancer cells, and HL-60 leukemia cells, and the number of cells were counted 72 hours later.

[6] = system: AZ-521 gastric cancer cells; experiment: Cell count 72 hours after vector introduction, AZ-521; type: cell-based; details: AZ-521, cell count 72 hours later
Protocol: as §5, §6

PC-14 [7] = experiment: Apoptosis by Annexin V-FITC/PI flow cytometry, PC-14; type: cell-based; details: PC-14 (non-WT1-expressing)
Protocol: as §3, §4

AZ-521 cells = experiment: Apoptosis by Annexin V-FITC/PI flow cytometry, AZ-521; type: cell-based
Protocol: as §3, §4

HL-60 leukemia cells = experiment: Cell count 72 hours after vector introduction, HL-60; type: cell-based; details: HL-60, cell count 72 hours later
Protocol: as §5, §6

cancer cells [8] = experiment: Release of cytochrome c from mitochondria into cytoplasm after combined treatment (Western blot); type: cell-based
Protocol: Western blot analysis was carried out by the following steps. Cells transiently expressing the siRNA expression vectors and mock vector were dissolved in an SDS sample buffer, and proteins were separated by SDS-PAGE and then blotted onto a PVDF membrane. Color was developed using a BCIP-NBT kit with the anti-WT1 antibody C-19 (Santa Cruz Biotechnology), an anti-cytochrome C antibody (Pharmingen), or an anti-GAPDH antibody (Chemicon) as a primary antibody, and an ALP-conjugated anti-rabbit or anti-mouse antibody (Santa Cruz Biotechnology) as a second antibody.
Combined use of an siRNA vector with a chemotherapeutic agent or a death ligand, was carried out by the following steps. […]
To reveal that enhancement of cell growth suppression due to combined use of vector-based WT1-siRNA with an anticancer agent is caused by enhancing the induction of mitochondria-mediated apoptosis, the release of cytochrome c from mitochondria into cytoplasm which takes place after combined treatment of vector-based WT1-siRNA with doxorubicin or etoposide was analyzed.
The release of cytochrome c from mitochondria into cytoplasm was analyzed by the following steps. […]

Substance: WRI-4m: siRNA vector, loop 2, target positions 1150-1179 (SEQ ID NO: 9), mutated sense strand SEQ ID NO: 11 (sense AGCTCCAGCTTAGTGAAGTGGGTAGGAGGG)
- loss of the mitochondrial membrane potential (HT-1080 cells [1]): significantly induced
- apoptosis induced (Annexin V-FITC-positive cells) (HT-1080 cells [2]): 71.1%
- loss of mitochondrial membrane potential (cancer cells [3]; combined treatment with doxorubicin): significantly enhanced
- loss of mitochondrial membrane potential (cancer cells [3]; combined treatment with etoposide): significantly enhanced
- growth suppression [4]: ≥ 90%
- loss of the mitochondrial membrane potential (PC-14 [5]): did not induce
- growth compared to mock vector treatment (SW620 colon cancer cells): significantly suppressed
- growth compared to mock vector treatment [6]: significantly suppressed
- apoptosis induction (PC-14 [7]): did not induce apoptosis
- apoptosis induced (Annexin V-FITC-positive cells) (AZ-521 cells): 40.6%
- growth compared to mock vector treatment (HL-60 leukemia cells): significantly suppressed
- release of cytochrome c into cytoplasm (cancer cells [8]; combined treatment with doxorubicin (0.2 μM, 24 hours)): enhanced
- release of cytochrome c into cytoplasm (cancer cells [8]; combined treatment with etoposide (25 μM, 24 hours)): enhanced
